As a reminder, the IC50 is the concentration that gives 50% inhibition. A higher IC50 goes with lower potency.

A short description of assay [1]: Inhibition of PRL-3-mediated cell migration in human DLD1 cells after 15 hrs by crystal violet staining based microscopic assay.
Assay [2] is described as follows: Inhibition of PRL-3-mediated cell invasion in human DLD1 cells after 20 hrs using crystal violet staining by Matrigel invasion assay.

As for `Cc1cc(O)c2c(c1)C(=O)c1cc(O)cc(O)c1C2=O` [1,3,8-trihydroxy-6-methylanthra-9,10-quinone], the IC50 in assay [1] came out at 28 µM; in assay [2] it was 35 µM.

For the origin of these results see BindingDB's records for doi:10.1016/j.bmcl.2011.11.008 (Korea Research Institute of Bioscience and Biotechnology, 2011).
